In article PMC4006925, “Squalene Synthase As a Target for Chagas Disease Therapeutics” (PLoS Pathogens, 2014):

How the values were obtained:
Vero cells = test: Vero (host) cell proliferation, alamarBlue; format: cell-based; settings: Chlorocebus sabaeus, Vero, read-out: IC50 Vero cells (host cell growth)
Description: Vero cells (1.7×10^4 cells/well) were seeded in 96 well plates (black, clear bottom from Greiner Bio-One Cat#655090) in 100 µL RPMI media (Sigma Cat# R-4130) with 10% FBS. Plates were tested as described by Recher et al.

T. cruzi epimastigotes [1] = test: Sterol composition of T. cruzi epimastigotes, GC-MS; format: cell-based, Trypanosoma cruzi; settings: 4 µM compound
Description: . Cells from cultures (96 h incubation) were washed with Buffer A with glucose (116 mM NaCl, 5.4 mM KCl, 0.8 mM MgSO4, 5.5 mM D-glucose, and 50 mM HEPES at pH 7.0) then pelleted and chloroform/methanol (2∶1 v/v) added (∼30 mL of solvent per gram of wet cells) followed by vigorous stirring and overnight incubation at 4°C. The extract was then filtered using Whatman #2 paper to eliminate insoluble material, and the filtrate (a single phase) dried under nitrogen. The extract was then re-extracted using chloroform/methanol 9/1 v/v, dried under nitrogen, dissolved in 1 mL of pure chloroform and re-dried under nitrogen gas. The extracted lipids were saponified with 5 mL of ethanolic-potassium hydroxide (5 g KOH, 7 mL water, 14 mL ethanol) for 1 hour at 80°C. After cooling, 2.5 mL of water and 1.5 mL hexane were added and the phases allowed to separate. […] Samples were analyzed on a 30 m DB5 column with 0.32 mm I.D. and 0.25 µm film thickness (Agilent Inc, Palo Alto, CA, USA) with an injection port temperature of 300°C, the interface was set to 300°C, the ion source adjusted to 230°C, MS Quadrupole 150°C. […] The spectra of all chromatogram peaks were evaluated by using the HP Chemstation (Agilent, Palo Alto, CA, USA) program. Identifications and quantifications were performed using mass spectra obtained from authentic standards and with NIST08 and W8N08 libraries (John Wiley & Sons, Inc., USA).

T. cruzi epimastigotes [2] = test: UQ9 biosynthesis in epimastigotes, LC-MS; format: cell-based, Trypanosoma cruzi
Description: For ubiquinone extraction, epimastigotes (1 g wet weight) were washed twice with buffer A with glucose (116 mM NaCl, 5.4 mM KCl, 0.8 mM MgSO4, 5.5 mM D-glucose, and 50 mM HEPES at pH 7.0). To break the cells, the pellets were frozen in a dry ice-100% ethanol bath (for 7 min) and thawed at 37°C (for 3 min) for a total of 5 times. One volume of water and three volumes of 1-propanol were added to the pellet. The samples were vortexed for 30 sec at room temperature and allowed to stand for one minute. Two volumes of n-hexane were added, the mixture vortexed for 30 sec at room temperature, then centrifuged at 12,000× g for 5 min. The upper phase, containing ubiquinone, was collected into a glass tube, and dried under nitrogen gas, then analyzed using LC-MS.
LC/MS was performed using an Agilent LC/MSD Trap XCT Plus system (Agilent Technologies, Santa Clara, CA) with an 1100 series HPLC system including a degasser, an auto-sampler, a binary pump, and a multiple-wavelength detector. The LC separation used a Phenomenex Gemini 3u C18 110A column (2 mm×100 mm) (Torrence, CA) with mobile phase A (0.1% formic acid in water) and mobile phase B (0.1% formic acid in acetonitrile). The flow-rate was 0.25 mL/min. The linear gradient was as follows: 0–1 min, 100% A; 7–50 min, 0% A; 51–56 min, 100% A. The auto-sampler was set at 5°C and the injection volume was 15 µL. UV signals were recorded at 275 nm. […]

T. cruzi = test: Rescue from T. cruzi cell growth inhibition by farnesol or geranylgeraniol; format: cell-based, Trypanosoma cruzi

## CCCCCCCCCC[n+]1ccn(CC(P(=O)([O-])O)P(=O)(O)O)c1 (stereo not drawn) [BPH-1218]
Vero cells
  IC50: ~1 mM
T. cruzi epimastigotes [1]; without compound 36%
  endogenous ergosterol and the three major ergosterol related sterols, % of total sterols: 15%
T. cruzi epimastigotes [1]; without compound 51%
  content of exogeneously-acquired cholesterol, % of total sterols: 71%
T. cruzi epimastigotes [2]
  decrease in UQ9 biosynthesis: ~40%
T. cruzi
  rescue afforded by farnesol: no “rescue”
T. cruzi; geranylgeraniol at 40 µM
  rescue by geranylgeraniol: ~20%
